This note sets out measurements from PMC11346426, “1-Deoxy-D-xylulose 5-phosphate reductoisomerase as target for anti Toxoplasma gondii agents: crystal structure, biochemical characterization and biological evaluation of inhibitors” (Biochemical Journal, 2024).

Series [1] has as its target T1, TgDXR (Toxoplasma gondii, UniProt S8ESX0). Nature of the series: T. gondii DXR enzyme inhibition assay (NADPH oxidation, absorption at 340 nm). The format is biochemical. Particulars: for IC50: 100 nM truncated His10-TgDXR, 100 µM NADPH, 4 mM MgCl2, 100 µM DXP, pH 7.5, 30°C, n = 6, read-out: IC50 ± S.D.; for Ki: Ki = IC50/(1 + [S]/Km), [S] = 100 µM DXP, Km = 30.58 µM. As for the experimental part:
The enzymatic assays were conducted at 30°C in 96 well plates using a total reaction volume of 150 µl containing 100 nM of purified TgDXR protein in dimeric state, 100 µM of NADPH and 4 mM of MgCl2 as cofactors, 100 µM of DXP as substrate in 50 mM HEPES buffer (pH 7.5) containing 50 µg/ml of BSA. For the screening, DXR inhibitors were tested for their inhibitory activity and their IC50 measurements at concentrations ranging from 100 µM to 3.05 nM, in dilution steps 1:2.
To optimize and to ensure the interaction of NADPH and its enzyme binding pocket, the assay solution was incubated for 10 min at 37°C. Then, the reaction was commenced with the addition of 100 µM of DXP to the complete assay mixture. The reaction was monitored by measuring the absorption at 340 nm every minute for 1 h using a microplate reader (Tecan® 200 Pro, Tecan Group, Männedorf, Switzerland). The initial velocity of the reactions were calculated, the values were then used in the software GraphPad PRISM™ (Version 9.5.1; San Diego, CA, U.S.A.) for determinations of the IC50 values.

For series [2], the system named is T. gondii ME49 tachyzoites. Nature of the series: T. gondii in vitro growth assay ([3H]-uracil incorporation). The series is classed as cell-based, Toxoplasma gondii. Particulars: for IC50: Toxoplasma gondii, T. gondii type II ME49 strain in Hs27 host cells, n = 6; for activity against T. gondii growth (in words): T. gondii type II ME49 strain, [3H]-uracil incorporation. On the procedure:
With the aim to assess the inhibitory in vitro effect on parasite growth, T. gondii growth assays were performed as described previously [[78-80]]. Compounds, previously diluted in culture media in appropriate stock solutions, were added to confluent monolayers of Hs27 cells in 96-flat well plates at various concentrations. Then, freshly harvested tachyzoites were added to the cultures at a multiplicity of infection of 1:1 (parasite/host cell ratio). As controls, untreated and uninfected Hs27 cells, 24 h pre-stimulated and T. gondii infected cells with human interferon γ (IFN γ) (300 U/ml) (Merck, Darmstadt, Germany, #I17001) and T. gondii infected cells only were employed. After 48 h incubation, proliferating toxoplasmas were labelled with 0.3 μCi/well of tritiated uracil (^3H-U; 5 mCi, Hartmann Analytic, Braunschweig, Germany, #ART1782). After 28-30 h of incubation, plates were frozen at -20°C overnight. Cells were then thawed and harvested (Basic96 Harvester; Zinsser Analytic, Skatron Instruments, Northridge, CA, U.S.A.), purified with glass fibre filters (Printed Filtermat A 102 mm × 258 mm; PerkinElmer, Waltham, MA, U.S.A.) and dried at 130°C for 15-20 min. Dried filters were then wrapped into transparent plastic covers, dunked with 10 ml scintillation cocktail (Betaplate Scint; PerkinElmer, Waltham, MA, U.S.A., #1205-440), sealed and then loaded into metal cassettes and the incorporation of ^3H-uracil into the RNA of proliferating toxoplasmas was measured using a β-counter, a liquid scintillation counter that measure the […] (Betaplate Liquid Scintillation Counter 1205; LKB-[…], Melbourne, Australia). All data sets were normalized to 100% of the positive control. The dose-response curves of the compounds were fitted by means of the statistics software GraphPad PRISMTM (Version 9.5.1; San Diego, CA, U.S.A.). The minimal concentrations of compounds required for 50% inhibition of the parasite (IC50 values) were determined by non-linear regression analysis. Pyrimethamine was used as reference anti-toxoplasma compound.

A short description of series [3]: MTT cytotoxicity assay on host cells. The series is classed as cell-based. Particulars: human, Hs27 fibroblasts, 24 h incubation. As for the experimental part: The method based on the reduction of the tetrazolium dye MTT [3-(4,5-dimethylthiazole-2-yl)-2,5-diphenyltetrazolium bromide] to its purple insoluble formazan by mitochondrial NAD(P)H-dependent cellular oxidoreductase enzymes in living cells, previously described by Mosmann was employed to assess the cytotoxic effects of the examined DXR inhibitors on the host cells, as previously described [[78–80]]. Briefly, Hs27 cells were cultured in 96-well plates at a concentration of 5 × 10^4/well in (IMDM, Gibco–Thermo Fisher Scientific, Waltham, MA, U.S.A., #12440053) with a volume of 100 µl per well and incubated at 37°C overnight. Then, eleven two-fold serially diluted concentrations of the investigated compounds ranging from […] were prepared and added to each well. Hs27 cells were then incubated for 24 h in humidified atmosphere of 5% CO2 in air. Controls included wells containing medium alone without cells (blank), untreated Hs27 cells, DMSO (negative control) and staurosporine (0.031, 0.062, 0.125, 0.25, 0.5, 1 µM) (Merck, Darmstadt, Germany, #S4400) as apoptosis inducer. After incubation, the culture media was replaced with 100 µl of DMEM medium without phenol (Gibco-Thermo Fisher Scientific, Waltham, MA, U.S.A., #21041025) plus 10% heat-inactivated (FBS Standard, South America origin, FBS, 2 µm sterile filtered, PAN-Biotech, Aidenbach, Germany, #P30-3306), and […] 2-mercaptoethanol (Gibco-Thermo Fisher Scientific, Waltham, MA, U.S.A., #21985023). Thereafter, the MTT reagent was added to each well and analysis conducted following the manufacture instructions (CyQuant MTT Cell Viability Assay Kit, Thermo Fisher Scientific, Waltham, MA, U.S.A., #V-13154). The absorbance was measured at 570 nm on an ELISA microplate reer (TECAN Sunrise, Männedorf, Switzerland) and the percentage of viability was calculated when compared with the untreated control. The data set was subsequently adjusted by applying blank correction. Cell viability values expressed as percentage of the negative control value were calculated as follows: %Cellviability=meanabsorbanceoftreatedwells−blank/meanabsorbanceofnegativecontrol−blank×100. The cytotoxicity of each compound was expressed as half maximal cytotoxic concentration (CC50 values) against Hs27 cells. These values were calculated by a non-linear regression using GraphPad PRISM™ statistics software package (Version 9.5.1; San Diego, CA, U.S.A.) plotting the percentage viability against the log of compound concentrations.
For orientation: Tetrazolium dyes change colour on reduction, which living cells bring about.

In series [4] the target is T1, TgDXR. Nature of the series: TgDXR enzyme kinetic characterization (Michaelis-Menten). The series is classed as biochemical. As to conditions: 100 nM TgDXR, substrate or cofactor varied 7.8 to 500 µM; n = 8. On the procedure:
(§1) To biochemically characterize the catalytic ability of the truncated TgDXR for the conversion of DXP into MEP in the presence of the cofactors Mg^2+ and NADPH, and to determine the optimum conditions for maximum enzyme activity, the enzymatic assays were monitored at 340 nm (maximal absorbance of NADPH) in different conditions.
(§2) The enzymatic activity was evaluated in fixed conditions, using 50 mM HEPES buffer containing 50 µg/ml of bovine serum albumin (BSA) containing 100 nM of purified TgDXR protein in dimeric state. In each experimental evaluation, only one parameter was varied: either the substrate (DXP) concentration (ranging from 7.8 to 500 µM), or the cofactor NADPH (ranging from 7.8 to 500 µM), or Mg^2+ concentration (ranging from 1 to 6 mM) or the pH (ranging from 5.5 to 9) (Figure 3).
(§3) For the determination of the kinetic parameters, various concentration of the substrate DXP or NADPH were employed for the determination of the apparent Km (substrate concentration that yield a half-maximal velocity) and Vmax (maximum velocity) for the enzyme. These parameters were calculated by a non-linear regression with the software GraphPad PRISM™ (Version 9.5.1; San Diego, CA, U.S.A.) plotting the initial velocity of the reactions and using the Michaelis–Menten model (Figure 3).

Substrate in series [5]: CC(=O)[C@@H](O)[C@H](O)COP(=O)(O)O
The description is as above. The format is biochemical, Toxoplasma gondii. Particulars: other: 100 nM TgDXR, substrate or cofactor varied 7.8 to 500 µM; n = 8. As for the experimental part:
as §1, §2, §3

What is called IC50 is the concentration that inhibits the measured activity by half. In general, Ki refers to a measure of affinity in units of concentration, obtained from inhibition or displacement. The term CC50 denotes the concentration that lowers cell viability or growth by half. Low readings indicate harm at low concentration, high ones better tolerance by the cells. As a reminder, the Km is the substrate concentration at which the rate is half of its maximum.

In the case of `CN(O)C(=O)CSC(c1ccccc1)P(=O)(O)O` (stereo not shown) [Compound 2, (((2-(hydroxy(methyl)amino)-2-oxoethyl)thio)(phenyl)methyl)phosphonic acid], the IC50 is 1.23 ± 0.12 µM on TgDXR [1] and greater than 100 µM in series [2]. Further, the Ki at TgDXR [1] amounted to 0.37 µM. Further, the CC50 at 24 h in series [3] is greater than 200 µM.
As for `CN(O)C(=O)CSC(c1ccc(F)c(F)c1)P(=O)(O)O` (stereo not shown) [Compound 3, ((3,4-difluorophenyl)((2-(hydroxy(methyl)amino)-2-oxoethyl)thio)methyl)phosphonic acid], on TgDXR [1], the IC50 was found to be 0.64 ± 0.38 µM and the Ki stood at 0.19 µM. Besides, in series [2], the “activity against T. gondii growth (in words)” value (from here on “activity”) was “demonstrated activity” and the IC50 came to 14.4 ± 1.94 µM. The CC50 at 24 h in series [3] is greater than 200 µM.
`CN(O)C(=O)CSC(c1ccc(Cl)c(Cl)c1)P(=O)(O)O` (stereo not shown) [Compound 4, ((3,4-dichlorophenyl)((2-(hydroxy(methyl)amino)-2-oxoethyl)thio)methyl)phosphonic acid]: at TgDXR [1], the IC50 came to 0.62 ± 0.12 µM and the Ki was 0.19 µM. In addition, in series [2], the “activity” value is “demonstrated activity” and half-maximal inhibition (IC50) required 5.46 ± 1.22 µM. In series [3], the CC50 at 24 h was greater than 200 µM.
The matching figures for `CN(O)C(=O)CSC(c1cc(F)cc(F)c1)P(=O)(O)O` (stereo not shown) [Compound 5, ((3,5-difluorophenyl)((2-(hydroxy(methyl)amino)-2-oxoethyl)thio)methyl)phosphonic acid]: 2.45 ± 0.54 µM, 0.74 µM, “demonstrated activity”, 56 ± 6.11 µM and greater than 200 µM.
As for `COc1cc(OC)cc(C(SCC(=O)N(C)O)P(=O)(O)O)c1` (stereo not shown) [Compound 6, ((3,5-dimethoxyphenyl)((2-(hydroxy(methyl)amino)-2-oxoethyl)thio)methyl)phosphonic acid], at TgDXR [1], the IC50 is 3.9 ± 1.06 µM and the Ki came out at 1.18 µM. In addition, in series [2], the “activity” value is recorded as “demonstrated activity” and the IC50 worked out at 12.5 ± 5.56 µM. In addition, in series [3], the CC50 at 24 h is greater than 200 µM.
As to `CN(O)C(=O)COC(c1ccccc1)P(=O)(O)O` (stereo not shown) [Compound 7, ((2-(hydroxy(methyl)amino)-2-oxoethoxy)(phenyl)methyl)phosphonic acid], the IC50 on TgDXR [1] is 5.82 ± 1.52 µM. In series [2], the “activity” value is reported as “demonstrated activity” and the IC50 came out at 48.2 ± 8.56 µM. The CC50 at 24 h in series [3] was greater than 200 µM.
As to `CN(O)C(=O)COC(c1ccc(F)c(F)c1)P(=O)(O)O` (stereo not shown) [Compound 8, ((3,4-difluorophenyl)(2-(hydroxy(methyl)amino)-2-oxoethoxy)methyl)phosphonic acid], the IC50 on TgDXR [1] was 52.14 ± 0.34 µM; in series [2], greater than 100 µM. The CC50 at 24 h in series [3] is greater than 200 µM.
`CN(O)C(=O)COC(c1ccc(Cl)c(Cl)c1)P(=O)(O)O` (stereo not shown) [Compound 9, ((3,4-dichlorophenyl)(2-(hydroxy(methyl)amino)-2-oxoethoxy)methyl)phosphonic acid]: at TgDXR [1], the IC50 amounted to 2.44 ± 0.43 µM and the Ki is 0.74 µM. The same molecule yielded an IC50 in series [2] greater than 100 µM. Besides, in series [3], the CC50 at 24 h was greater than 200 µM.
For the molecule `Cc1ccc(C(OCC(=O)N(C)O)P(=O)(O)O)cc1` (stereo not shown) [Compound 10, ((2-(hydroxy(methyl)amino)-2-oxoethoxy)(p-tolyl)methyl)phosphonic acid], at TgDXR [1], the IC50 came to 7.68 ± 0.87 µM and the Ki came to 2.51 µM. For the same molecule, the IC50 in series [2] is greater than 100 µM. For the same molecule, the CC50 at 24 h in series [3] is greater than 200 µM.
Molecule `CCc1nc(N)nc(N)c1-c1ccc(Cl)cc1` [Pyrimethamine, pyrimethamine, reference compound] came in with an IC50 in series [2] of 0.22 ± 0.05 µM. This molecule also registered a CC50 at 24 h in series [3] greater than 100 µM.
On to NADPH, for which, on TgDXR [4], the Km is 51.3 ± 11.8 µM.

B1: TgDXR (Toxoplasma gondii ME49) (protein)
chain: PSTRVKRLVVLGSTGSIGKSTLEIAREFPDIFQIVGLAAGGSNLALLAEQVAAFRPQYVYLGDSSKVAELQERLNDHERSAAFPRPRLLLGDEGLAELACVPNYDILVSAIVGFKGVLPTLKALEAGKDVALANKEALVAAGPVFRCLLSTRGLLYGDQERQDRHERSHRSGDQEGDREEDTDGDRREECDKRRAKAGQKCGLLLPVDSEHSAIFQALQGVPASCYPPRKLLLTASGGPFRGRTRDELEQVTLESALKHPKWSMGAKITIDSATLMNKGLEVIEAHFAFGCPYSSIEVLVHPQAVIHSAVELRDGATLAQLGLPDMKLPIAYALTWPHRLAAPWSAGVDLTREGNLTFEKPDLNTFGCLGLAYEAGERGGVAPACLNAANEVAVERFRNKEIGFVDIEDTVRHVMALQERERDNFSDVSLQDVFDADHWARTAARAFKPRK
For B1, the Km in series [5] was found to be 30.58 ± 6.33 µM.
